Reference: US20240099996A1, “METHODS FOR TREATING CANCER” (Radius Pharmaceuticals, Inc., priority 2015, published 2024)
Counter-ions that a name gives are not always drawn.

Assay: Phase 1 dose escalation study in healthy post-menopausal women, treatment related AEs
Format: in vivo
Description: The subjects were 40-75 years old with BMI of 18.0-30 kg/m^2. Subjects having evidence of clinically relevant pathology, increased risk of stroke or of history venous thromboembolic events, or use of concomitant medication less than 14 days prior to admission to clinical research center (paracetamol allowed up to 3 days prior) were excluded. Dosing
The subjects were treated with placebo or at least one dose p.o., q.d. after a light breakfast for 7 days at dose levels of 200 mg, 500 mg, 750 mg and 1000 mg, respectively.

CCNCCc1ccc(CN(CC)c2cc(OC)ccc2[C@@H]2CCc3cc(O)ccc3C2)cc1 [RAD1901, (6R)-6-(2-(N-(4-(2-(ethylamino)ethyl)benzyl)-N-ethylamino)-4-methoxyphenyl)-5,6,7,8-tetrahydronaphthalen-2-ol dihydrochloride]
Nausea Gr2 (750 mg, N = 8): 1 (13) n(%) | Nausea Gr3 (750 mg, N = 8): 0 n(%) | Odynophagia Gr1 (750 mg, N = 8): 0 n(%) | Odynophagia Gr2 (750 mg, N = 8): 0 n(%) | Odynophagia Gr3 (750 mg, N = 8): 0 n(%) | Oesophageal pain Gr1 (750 mg, N = 8): 1 (13) n(%) | Oesophageal pain Gr2 (750 mg, N = 8): 0 n(%) | Oesophageal pain Gr3 (750 mg, N = 8): 0 n(%) | Salivary hypersecretion Gr1 (750 mg, N = 8): 2 (25) n(%) | Salivary hypersecretion Gr2 (750 mg, N = 8): 0 n(%) | Salivary hypersecretion Gr3 (750 mg, N = 8): 0 n(%) | Sensation of a foreign body Gr1 (750 mg, N = 8): 0 n(%) | Sensation of a foreign body Gr2 (750 mg, N = 8): 0 n(%) | Sensation of a foreign body Gr3 (750 mg, N = 8): 0 n(%) | Vomiting Gr1 (750 mg, N = 8): 0 n(%) | Vomiting Gr2 (750 mg, N = 8): 2 (25) n(%) | Vomiting Gr3 (750 mg, N = 8): 0 n(%) | Abdominal discomfort Gr1 (1000 mg, N = 7): 0 n(%) | Abdominal discomfort Gr2 (1000 mg, N = 7): 0 n(%) | Abdominal discomfort Gr3 (1000 mg, N = 7): 0 n(%) | Abdominal distension Gr1 (1000 mg, N = 7): 2 (29) n(%) | Abdominal distension Gr2 (1000 mg, N = 7): 0 n(%) | Abdominal distension Gr3 (1000 mg, N = 7): 0 n(%) | Abdominal pain Gr1 (1000 mg, N = 7): 1 (14) n(%) | Abdominal pain Gr2 (1000 mg, N = 7): 1 (14) n(%) | Abdominal pain Gr3 (1000 mg, N = 7): 0 n(%) | Diarrhoea Gr1 (1000 mg, N = 7): 3 (43) n(%) | Diarrhoea Gr2 (1000 mg, N = 7): 1 (14) n(%) | Diarrhoea Gr3 (1000 mg, N = 7): 0 n(%) | Dizziness Gr1 (1000 mg, N = 7): 1 (14) n(%) | Dizziness Gr2 (1000 mg, N = 7): 0 n(%) | Dizziness Gr3 (1000 mg, N = 7): 0 n(%) | Dyspepsia Gr1 (1000 mg, N = 7): 1 (14) n(%) | Dyspepsia Gr2 (1000 mg, N = 7): 1 (14) n(%) | Dyspepsia Gr3 (1000 mg, N = 7): 0 n(%) | Dysphagia Gr1 (1000 mg, N = 7): 0 n(%) | Dysphagia Gr2 (1000 mg, N = 7): 0 n(%) | Dysphagia Gr3 (1000 mg, N = 7): 0 n(%) | Flatulance Gr1 (1000 mg, N = 7): 0 n(%) | Flatulance Gr2 (1000 mg, N = 7): 0 n(%) | Flatulance Gr3 (1000 mg, N = 7): 0 n(%) | Headache Gr1 (1000 mg, N = 7): 2 (29) n(%) | Headache Gr2 (1000 mg, N = 7): 0 n(%) | Headache Gr3 (1000 mg, N = 7): 0 n(%) | Hiccups Gr1 (1000 mg, N = 7): 2 (29) n(%) | Hiccups Gr2 (1000 mg, N = 7): 0 n(%) | Hiccups Gr3 (1000 mg, N = 7): 0 n(%) | Hot flush Gr1 (1000 mg, N = 7): 1 (14) n(%) | Hot flush Gr2 (1000 mg, N = 7): 0 n(%) | Hot flush Gr3 (1000 mg, N = 7): 0 n(%) | Myalgia Gr1 (1000 mg, N = 7): 0 n(%) | Myalgia Gr2 (1000 mg, N = 7): 0 n(%) | Myalgia Gr3 (1000 mg, N = 7): 0 n(%) | Nausea Gr1 (1000 mg, N = 7): 4 (57) n(%) | Nausea Gr2 (1000 mg, N = 7): 2 (29) n(%) | Nausea Gr3 (1000 mg, N = 7): 0 n(%) | Odynophagia Gr1 (1000 mg, N = 7): 1 (14) n(%) | Odynophagia Gr2 (1000 mg, N = 7): 1 (14) n(%) | Odynophagia Gr3 (1000 mg, N = 7): 0 n(%) | Oesophageal pain Gr1 (1000 mg, N = 7): 1 (14) n(%) | Oesophageal pain Gr2 (1000 mg, N = 7): 1 (14) n(%) | Oesophageal pain Gr3 (1000 mg, N = 7): 1 (14) n(%) | Salivary hypersecretion Gr1 (1000 mg, N = 7): 2 (29) n(%) | Salivary hypersecretion Gr2 (1000 mg, N = 7): 0 n(%) | Salivary hypersecretion Gr3 (1000 mg, N = 7): 0 n(%) | Sensation of a foreign body Gr1 (1000 mg, N = 7): 4 (57) n(%) | Sensation of a foreign body Gr2 (1000 mg, N = 7): 0 n(%) | Sensation of a foreign body Gr3 (1000 mg, N = 7): 0 n(%) | Vomiting Gr1 (1000 mg, N = 7): 0 n(%) | Vomiting Gr2 (1000 mg, N = 7): 3 (43) n(%) | Vomiting Gr3 (1000 mg, N = 7): 0 n(%) | dose limiting toxicities (DLT) (200-1000 mg p.o., q.d., 7 days): No dose limiting toxicites (DLT) were observed | maximum tolerated dose (MTD) (200-1000 mg p.o., q.d., 7 days): not established | Abdominal discomfort Gr1 (Total Active, N = 44): 4 n(%) | Abdominal discomfort Gr2 (Total Active, N = 44): 1 (2) n(%) | Abdominal discomfort Gr3 (Total Active, N = 44): 0 n(%) | Abdominal distension Gr1 (Total Active, N = 44): 5 n(%) | Abdominal distension Gr2 (Total Active, N = 44): 1 (2) n(%) | Abdominal distension Gr3 (Total Active, N = 44): 0 n(%) | Abdominal pain Gr1 (Total Active, N = 44): 7 n(%) | Abdominal pain Gr2 (Total Active, N = 44): 3 (7) n(%) | Abdominal pain Gr3 (Total Active, N = 44): 0 n(%) | Diarrhoea Gr1 (Total Active, N = 44): 6 n(%) | Diarrhoea Gr2 (Total Active, N = 44): 1 (2) n(%) | Diarrhoea Gr3 (Total Active, N = 44): 0 n(%) | Dizziness Gr1 (Total Active, N = 44): 5 n(%) | Dizziness Gr2 (Total Active, N = 44): 0 n(%) | Dizziness Gr3 (Total Active, N = 44): 0 n(%) | Dyspepsia Gr1 (Total Active, N = 44): 13 n(%) | Dyspepsia Gr2 (Total Active, N = 44): 3 (7) n(%) | Dyspepsia Gr3 (Total Active, N = 44): 0 n(%) | Dysphagia Gr1 (Total Active, N = 44): 4 n(%) | Dysphagia Gr2 (Total Active, N = 44): 3 (7) n(%) | Dysphagia Gr3 (Total Active, N = 44): 0 n(%) | Flatulance Gr1 (Total Active, N = 44): 5 n(%) | Flatulance Gr2 (Total Active, N = 44): 0 n(%) | Flatulance Gr3 (Total Active, N = 44): 0 n(%) | Headache Gr1 (Total Active, N = 44): 9 n(%) | Headache Gr2 (Total Active, N = 44): 1 (2) n(%) | Headache Gr3 (Total Active, N = 44): 0 n(%) | Hiccups Gr1 (Total Active, N = 44): 9 n(%) | Hiccups Gr2 (Total Active, N = 44): 0 n(%) | Hiccups Gr3 (Total Active, N = 44): 0 n(%) | Hot flush Gr1 (Total Active, N = 44): 11 n(%) | Hot flush Gr2 (Total Active, N = 44): 0 n(%) | Hot flush Gr3 (Total Active, N = 44): 0 n(%) | Myalgia Gr1 (Total Active, N = 44): 3 n(%) | Myalgia Gr2 (Total Active, N = 44): 2 (5) n(%) | Myalgia Gr3 (Total Active, N = 44): 0 n(%) | Nausea Gr1 (Total Active, N = 44): 14 n(%) | Nausea Gr2 (Total Active, N = 44): 5 (11) n(%) | Nausea Gr3 (Total Active, N = 44): 0 n(%) | Odynophagia Gr1 (Total Active, N = 44): 4 n(%) | Odynophagia Gr2 (Total Active, N = 44): 2 (5) n(%) | Odynophagia Gr3 (Total Active, N = 44): 0 n(%) | Oesophageal pain Gr1 (Total Active, N = 44): 3 n(%) | Oesophageal pain Gr2 (Total Active, N = 44): 6 (14) n(%) | Oesophageal pain Gr3 (Total Active, N = 44): 1 (2) n(%) | Salivary hypersecretion Gr1 (Total Active, N = 44): 8 n(%) | Salivary hypersecretion Gr2 (Total Active, N = 44): 0 n(%) | Salivary hypersecretion Gr3 (Total Active, N = 44): 0 n(%) | Sensation of a foreign body Gr1 (Total Active, N = 44): 7 n(%) | Sensation of a foreign body Gr2 (Total Active, N = 44): 0 n(%) | Sensation of a foreign body Gr3 (Total Active, N = 44): 0 n(%) | Vomiting Gr1 (Total Active, N = 44): 3 n(%) | Vomiting Gr2 (Total Active, N = 44): 10 (23) n(%) | Vomiting Gr3 (Total Active, N = 44): 1 (2) n(%) | Abdominal discomfort All (Total TEAE, N = 44): 5 n(%) | Abdominal distension All (Total TEAE, N = 44): 6 n(%) | Abdominal pain All (Total TEAE, N = 44): 10 n(%) | Diarrhoea All (Total TEAE, N = 44): 7 n(%) | Dizziness All (Total TEAE, N = 44): 5 n(%) | Dyspepsia All (Total TEAE, N = 44): 16 n(%) | Dysphagia All (Total TEAE, N = 44): 7 n(%) | Flatulance All (Total TEAE, N = 44): 5 n(%) | Headache All (Total TEAE, N = 44): 10 n(%) | Hiccups All (Total TEAE, N = 44): 9 n(%) | Hot flush All (Total TEAE, N = 44): 11 n(%) | Myalgia All (Total TEAE, N = 44): 5 n(%) | Nausea All (Total TEAE, N = 44): 19 n(%) | Odynophagia All (Total TEAE, N = 44): 6 n(%) | Oesophageal pain All (Total TEAE, N = 44): 10 n(%) | Salivary hypersecretion All (Total TEAE, N = 44): 8 n(%) | Sensation of a foreign body All (Total TEAE, N = 44): 7 n(%) | Vomiting All (Total TEAE, N = 44): 14 n(%)
